In paper PMC2685281 (Journal of organometallic chemistry, 2009):
Read-outs that look alike come from different tables or passages of the source.

Columns and labels:
[1] = target: T1, lipoic acid groups of the α-ketoglutarate dehydrogenase complex (Sus scrofa, UniProt Q9N0F1); type: binding, porcine
T1 sequence (Q9N0F1 69-455): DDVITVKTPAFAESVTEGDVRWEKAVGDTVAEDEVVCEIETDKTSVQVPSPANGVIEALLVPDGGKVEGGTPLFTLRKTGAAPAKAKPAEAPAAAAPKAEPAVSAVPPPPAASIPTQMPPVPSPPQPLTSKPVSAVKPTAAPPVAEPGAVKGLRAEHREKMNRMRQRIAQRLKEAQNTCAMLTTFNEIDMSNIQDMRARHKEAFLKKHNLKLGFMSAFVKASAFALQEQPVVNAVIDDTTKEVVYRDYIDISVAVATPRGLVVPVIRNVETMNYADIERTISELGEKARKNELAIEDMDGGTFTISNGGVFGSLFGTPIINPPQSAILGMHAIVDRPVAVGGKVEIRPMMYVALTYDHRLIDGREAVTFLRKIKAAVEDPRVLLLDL

[2] = target: T2, lipoic acid groups of the pyruvate dehydrogenase complex (Sus scrofa, UniProt A0A4X1TBD2); type: binding, porcine
T2 sequence (A0A4X1TBD2 1-647): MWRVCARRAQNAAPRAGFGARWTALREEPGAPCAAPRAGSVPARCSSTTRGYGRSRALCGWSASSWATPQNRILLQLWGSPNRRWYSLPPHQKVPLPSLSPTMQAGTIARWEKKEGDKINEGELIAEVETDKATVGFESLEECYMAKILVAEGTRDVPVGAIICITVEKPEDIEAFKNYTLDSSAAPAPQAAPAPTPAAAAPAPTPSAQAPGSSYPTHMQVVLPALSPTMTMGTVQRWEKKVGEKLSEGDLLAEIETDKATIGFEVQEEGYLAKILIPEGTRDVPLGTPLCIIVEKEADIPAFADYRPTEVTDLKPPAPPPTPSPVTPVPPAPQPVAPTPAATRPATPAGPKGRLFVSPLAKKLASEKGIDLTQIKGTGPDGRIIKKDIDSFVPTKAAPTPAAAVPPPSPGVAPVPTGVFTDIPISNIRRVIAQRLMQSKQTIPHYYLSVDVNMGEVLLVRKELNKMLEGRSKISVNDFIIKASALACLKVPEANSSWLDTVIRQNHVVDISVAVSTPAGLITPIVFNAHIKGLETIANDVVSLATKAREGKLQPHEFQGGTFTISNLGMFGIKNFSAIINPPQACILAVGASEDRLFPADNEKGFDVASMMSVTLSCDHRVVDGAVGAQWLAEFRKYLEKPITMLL

[3] = target: α-ketoglutarate dehydrogenase (KGDH) complex (Sus scrofa, UniProt Q9N0F1); type: biochemical, porcine
[4] = target: pyruvate dehydrogenase (PDH) complex; type: biochemical, porcine
PDH complex = conditions: read-out: IC50, PDH inhibition; cited from earlier work
reduced thiol groups = conditions: read-out: dissociation constants (Kd) for reduced thiol groups; cited from earlier work

Substance	Loss of recognition of lipoic acid groups by anti-lipoic acid antibody, KGDH [1]	Loss of recognition of lipoic acid groups by anti-lipoic acid antibody, PDH [2]	50% enzyme inhibition (IC50), KGDH, half hour incubation [3]	50% enzyme inhibition (IC50), KGDH, one hour incubation [3]	IC50 ([3]; read-out: 50% enzyme inhibition (IC50), KGDH, half hour incubation)	IC50 ([3]; read-out: 50% enzyme inhibition (IC50), KGDH, one hour incubation)	50% enzyme inhibition (IC50), PDH, half hour incubation [4]	50% enzyme inhibition (IC50), PDH, one hour incubation [4]	IC50 ([4]; read-out: 50% enzyme inhibition (IC50), PDH, half hour incubation)	IC50 ([4]; read-out: 50% enzyme inhibition (IC50), PDH, one hour incubation)	IC50 (PDH complex)	Kd (reduced thiol groups)
Dimethylarsonous iodide [DMA ^3+]	strong interference	strong interference										
Sodium arsenite [As ^3+]			733 ppb	488 ppb	9.78 µM	6.51 µM	704 ppb	267 ppb	9.39 µM	3.56 µM	116 µM	5 to 124 µM
